Results on four compounds are retold here after patent publication US20050003509A1, “Method for modulating C.albicans” (priority 2003, published 2005).

In test [1] the test system is C.albicans. The test is described as follows: induction of morphological transition (hyphae) in buffer. Format: cell-based. The conditions noted are these: 10 mM proline or 2.5 mM Glc-Nac in 10 mM MES pH 6.4, 12 hours, 37° C. On the procedure: To test this, stains were grown in YPD, as described supra, washed, and were resuspended in buffer at an OD600 of 1, or buffer (10 MM MES, pH 6.4) containing either 10 mM proline, or 2.5 mM Glc-Nac. The suspensions were incubated for 12 hours, at 37° C., after which the suspensions were examined microscopically.

Test [2] deals with S.cervesiae strain FGY145. The test can be described thus: growth of transformed shr3Δ6 S.cervesiae strain FGY145 with toxic amino acids. It counts as cell-based, S.cerevisiae. The conditions noted are these: 30° C., six days. Here is the method: Standard culture conditions and media for S.cervesiae and C.albicans have been described by Sherman, in Guthrie, ed. Guide to Yeast Genetics And Molecular Biology (Academic Press, 1991), pp. 3-21, incorporated by reference. To elaborate, Ura^− strains of C.albicans were grown in standard media, supplemented with 25 μg/ml of uridine. Tests on S.cerevisiae were carried out in SD medium supplemented with histidine, as well as various toxic amino acid analogs, i.e., L-canaranine (1 μg/ml), L-azetidine-2-carboxylate (500 μg/ml), B-chloro-D, L-alanine (100 μg/ml), p-fluoro-D, L-phenylalanine (400 μg/ml), D, L-ethionine (300 μg/ml), and 2-aminoethyl-L-cysteine (225 μg/ml). Ljungdahl, et al., Cell, 71:463-478 (1992), was followed to produce SPD and SPD containing 30 mM histidine.
Cell suspension of shr3Δ6 S.cervesiae strain FGY145 described by Gilstring, et al., Mol. Cell Biol., 10:3549-3565 (1999), were transformed with either control plasma pRS316, pPL210, which encodes SHR3 and is described by Ljungdahl, et al., supra, or pPM20, which encodes CSH3, and is described supra. The transformants were spotted on the described SD media, and grown in the presence of the toxic amino acids described supra. Suspensions of the cells were also grown on SPD, and SPD containing 30 mM histidine. […]

The test system of test [3] is C.albicans. The test can be described thus: growth on YNB medium with lysine as sole nitrogen source. The conditions noted are these: 0, 0.1, 1 and 3 mM lysine. It counts as cell-based. Here is the method: Cells were then grown on YNB medium, containing varying concentrations of lysine (0, 0.1, 1 and 3 mM), as sole nitrogen source. A striking gene dosage effect was observed. As expected, none of the strains were able to grow in the absence of lysine, whereas they grew weakly when 0.1 mM lysine was present, showing the C.albicans can metabolize lysine. […] The heterozygous strains have balanced the opposing activities.

On to `O=C(O)[C@@H]1CCCN1` [proline], for which the hyphal development entry in the test on C.albicans [1] ((+/+) wild type) is given as “developed hyphae readily”; with C.albicans [1] ((−/−) cells), “only a few cells with short germ tubules”.
On to `N[C@@H](Cc1c[nH]cn1)C(=O)O` [histidine], for which the growth sensitivity entry in test [2] (transformants carrying SHR3 (CSH3 transformants indistinguishable)) is “sensitive”; in test [2] (transformants with control plasmid pRS316), “resistant”.
With `CC(=O)N[C@H]1C(O)O[C@H](CO)[C@@H](O)[C@@H]1O` (stereo partly drawn) [Glc-Nac, N-acetyl glucosamine], the hyphal development result in the test on C.albicans [1] ((+/+) wild type) and with C.albicans [1] ((−/−) cells) was “extensive hyphal development” each time.
For the compound `NCCCC[C@H](N)C(=O)O` [lysine], the “growth with increasing lysine concentration” value in the test with C.albicans [3] (CSH3/CSH3 (+/+) strain) is reported as “decrease at concentrations above 1 mM”; in the test on C.albicans [3] (heterozygous strains) it was “robust growth at concentrations greater than 1 mM”; in the test with C.albicans [3] (homozygous null mutant) it was “improved noticeably”.
